Results from ChEMBL document CHEMBL1151602, “Synthesis and bioactivity of new antineoplastic terpenylquinones” (Bioorg Med Chem Lett, 1996).

How the values were obtained:
Assay type in all cases: functional, cell-based
[1] = system: P388; assay: Cytotoxicity was measured against neoplastic cultured P-388 cells of murine leukemia.; details: Mus musculus
[2] = system: HT-29; assay: Cytotoxicity was measured against neoplastic cultured HT-29 cells of human colon carcinoma.
[3] = system: SK-MEL-28; assay: Cytotoxicity was measured against neoplastic cultured MEL-28 cells of malign human melanoma.
[4] = system: A549; assay: Cytotoxicity was measured against neoplastic cultured A-549 cells of human lung carcinoma.

Compound | IC50 [1] | IC50 [2] | IC50 [3] | IC50 [4]
CC(C)=CCCC1=CCC2C(=O)c3ccccc3C(=O)C2C1 (stereo not given) | 8.5 µM | > 34 µM | > 34 µM | 8.5 µM
CC1=CCC[C@H]2[C@](C)(Cc3cc(O)ccc3O)[C@@H](C)CC[C@]12C [AVAROL] | 3.1 µM | 6 µM | 6 µM | 6 µM
CC(C)=CCCC1=CCc2c(O)cc(C)c(O)c2C1 | 3.8 µM | 19.4 µM | 19.4 µM | 3.8 µM
CC(=O)Oc1ccc(OC(C)=O)c2c1CC=C(CCC=C(C)C)C2 | 1.5 µM | 3.6 µM | 3.6 µM | 3.6 µM
CC(C)=CCCc1ccc2c(c1)C(=O)C=CC2=O | 0.4 µM | 1 µM | 0.4 µM | 1 µM
O=C1C=CC(=O)C=C1 [BENZOQUINONE] | 11.1 µM | 46.2 µM | 46.2 µM | 46.2 µM
CC(=O)Oc1cc(C)c(OC(C)=O)c2cc(CCC=C(C)C)ccc12 | 2.9 µM | 7.3 µM | 3.5 µM | 1.5 µM
CC(C)=CCCC1=CCC2=C(C1)C(=O)C(C)=CC2=O | 3.9 µM | 19.5 µM | 9.8 µM | 3.9 µM
O=C1C=CC(=O)c2ccccc21 [NAPHTHOQUINONE] | > 63.2 µM | > 63.2 µM | > 63.2 µM | > 63.2 µM
CC(C)=CCCC1=CCC2=C(C1)C(=O)C=CC2=O | 1 µM | 2.1 µM | 2.1 µM | 2.1 µM
CC1=CCC[C@H]2[C@](C)(CC3=CC(=O)C=CC3=O)[C@@H](C)CC[C@]12C [AVARONE] | 3.1 µM | 6 µM | 6 µM | 6 µM
CC(C)=CCCc1ccc2c(c1)C(=O)C(C)=CC2=O | 3.9 µM | 19.6 µM | 9.8 µM | 3.9 µM
CC(=O)Oc1cc(C)c(OC(C)=O)c2c1CC=C(CCC=C(C)C)C2 | 2.9 µM | 14.6 µM | 14.6 µM | 2.9 µM
CC(C)=CCCC1=CCC2=C(C1)C(=O)c1ccccc1C2=O | 17 µM | > 34 µM | > 34 µM | 17 µM
CC(C)=CCCC1=CCc2c(O)ccc(O)c2C1 | 2.1 µM | 4.9 µM | 4.9 µM | 4.9 µM
